Series [1] relates to human SMAD7 mRNA. Put plainly: Antisense inhibition of human SMAD7 mRNA expression in Hep3B cells by 3-10-3 cEt gapmers, 10,000 nM, electroporation (Example 2). The note with it: approximately 24 hours; for % inhibition of SMAD7 mRNA expression: electroporation, 10,000 nM antisense oligonucleotide, RTS5062, relative to untreated control cells. The series is classed as cell-based. In outline:
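Percent inhibition of SMAD7 mRNA, relative to untreated cells, after ~24 h exposure of electroporated Hep3B cells to 10,000 nM cEt gapmer; levels by qRT-PCR, corrected for total RNA.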

Series [2] has as its system human SMAD7 mRNA. Put plainly: Dose-dependent inhibition of human SMAD7 mRNA expression in Hep3B cells (Example 3, Study 1 and 2). The format is cell-based. The note with it: electroporation; for % inhibition of SMAD7 mRNA expression: approximately 16 hours; for IC50: Study 2 (740-20000 nM). A digest of the protocol: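 Hep3B cells, 20,000 per well, electroporated with antisense oligonucleotide at 0.31, 1.25, 5.00 or 20.00 μM (first series) or 0.74, 2.22, 6.67 or 20.00 μM (second series). After ~16 h, SMAD7 mRNA measured by RT-qPCR (RTS5062), normalised to RIBOGREEN total RNA. Percent inhibition vs untreated cells; IC50 derived.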

The mark [3] stands for this setting: 740 nM, Study 2, relative to untreated control cells.
Setting [4] is: Hep3B cells, electroporation with 10,000 nM antisense oligonucleotide, RTS5062, percent inhibition of SMAD7 mRNA relative to untreated control cells.
[5] abbreviates: Hep3B cells, 10,000 nM antisense oligonucleotide, electroporation, RT-PCR primer probe set RTS5062, relative to untreated control cells.
Where [6] appears, read: Hep3B cells, electroporation with 10,000 nM antisense oligonucleotide, SMAD7 mRNA by RT-PCR (RTS5062), relative to untreated control cells.

Strand notation (5' to 3'): a small letter for the sugar, then the base; units joined by * are phosphorothioate-linked, units joined directly phosphodiester-linked; [ ] holds rarer units or linkages, { } end groups; capitals alone tell only the bases. k = constrained ethyl (cEt); [5mC] = 5-methylcytosine; d = 2'-deoxy (DNA)

“799734 (antisense kT*k[5mC]*k[5mC]*d[5mC]*dA*dG*dG*dT*dG*dA*dA*d[5mC]*d[5mC]*k[5mC]*kA*k[5mC]) [compound 799734]”: the “% inhibition of SMAD7 mRNA expression” value is given as 45% in series [1] (Hep3B cells); 8% in series [2] (setting [3]); 44% in series [2] (2220 nM, Study 2); 64% in series [2] (6670.0 nM, Study 2); 67% in series [2] (20000.0 nM, Study 2). Also, in series [2], 8 µM corresponded to half-maximal inhibition (IC50).

With “799743 (antisense k[5mC]*kT*kG*dG*dA*dG*dT*dT*dA*dT*dT*d[5mC]*dT*k[5mC]*kA*kA) [compound 799743]”, the % Inhibition – broadly, the relative decrease from the control value, in per cent – in series [1] (setting [4]) amounted to 51%. The “% inhibition of SMAD7 mRNA expression” value stood at 0% in series [2] (setting [3]); 43% in series [2] (2220 nM, Study 2); 44% in series [2] (6670.0 nM, Study 2); 64% in series [2] (20000.0 nM, Study 2). Besides, half-maximal inhibition in series [2] (IC50) was put at 5 µM.

For “799751 (antisense kG*kA*kG*d[5mC]*dT*dA*dA*dT*dG*dA*d[5mC]*dA*d[5mC]*kT*kG*kG) [compound 799751]”, the “% inhibition of SMAD7 mRNA expression” value is 60% in series [1] (Hep3B cells); 11% in series [2] (setting [3]); 35% in series [2] (2220 nM, Study 2); 69% in series [2] (6670.0 nM, Study 2); 65% in series [2] (20000.0 nM, Study 2). Moreover, the concentration for half-maximal inhibition (IC50) (in general, the point on the concentration scale where inhibition reaches its midpoint) in series [2] came out at 10 µM.

Consider “799753 (antisense k[5mC]*kG*kT*dG*dA*dG*dT*dA*dA*dA*dT*dT*d[5mC]*kT*kT*kA) [compound 799753]”, for which the “% inhibition of SMAD7 mRNA expression” value in series [1] (Hep3B cells) is 69%; in series [2] (setting [3]), 0%; in series [2] (2220 nM, Study 2) it was 33%; in series [2] (6670.0 nM, Study 2), 32%; in series [2] (20000.0 nM, Study 2), 66%. Moreover, 4 µM corresponded to half-maximal inhibition in series [2] (IC50).

In the case of “799755 (antisense kG*kA*kA*dA*dG*dT*dT*dA*d[5mC]*dA*dG*dA*dA*k[5mC]*kT*k[5mC]) [compound 799755]”, the “% inhibition of SMAD7 mRNA expression” value in series [1] (Hep3B cells) was found to be 77%; in series [2] (setting [3]) it was 13%; in series [2] (2220 nM, Study 2), 44%; in series [2] (6670.0 nM, Study 2), 66%; in series [2] (20000.0 nM, Study 2) it was 75%. This substance yielded an IC50 in series [2] of 6 µM.

In the case of “799759 (antisense kA*k[5mC]*k[5mC]*dA*dT*dA*dT*d[5mC]*dA*d[5mC]*dT*d[5mC]*d[5mC]*kT*kT*k[5mC]) [compound 799759]”, the “% inhibition of SMAD7 mRNA expression” value in series [1] (Hep3B cells) turned out to be 66%; in series [2] (setting [3]), 22%; in series [2] (2220 nM, Study 2), 44%; in series [2] (6670.0 nM, Study 2), 45%; in series [2] (20000.0 nM, Study 2), 66%. In series [2], this substance came in with an IC50 of 2 µM.

On to “799781 (kG*kT*k[5mC]*dA*dA*dT*dA*d[5mC]*dA*dT*dA*dT*dT*kT*kG*k[5mC]; antisense) [compound 799781]”, for which the “% Inhibition” value in series [1] (setting [4]) worked out at 66%. Also, the “% inhibition of SMAD7 mRNA expression” value stood at 23% in series [2] (setting [3]); 75% in series [2] (2220 nM, Study 2); 72% in series [2] (6670.0 nM, Study 2); 92% in series [2] (20000.0 nM, Study 2). Moreover, the concentration for half-maximal inhibition (IC50) in series [2] was > 20 µM.

With “799787 (k[5mC]*k[5mC]*kA*dA*dA*dG*d[5mC]*dA*dG*dA*dA*dG*dT*kA*kG*kA; antisense) [compound 799787]”, the “% Inhibition” value in series [1] (setting [4]) is 58%. In addition, the “% inhibition of SMAD7 mRNA expression” value in series [2] (setting [3]) is 0%; in series [2] (2220 nM, Study 2) it was 9%; in series [2] (6670.0 nM, Study 2) it was 35%; in series [2] (20000.0 nM, Study 2), 41%. In series [2], this substance came in with a concentration for half-maximal inhibition (IC50) of 18 µM.

On to “799791 (kG*kG*kG*dA*dG*dA*d[5mC]*d[5mC]*dT*dA*d[5mC]*d[5mC]*dT*k[5mC]*kT*kG; antisense) [compound 799791]”, for which the “% inhibition of SMAD7 mRNA expression” value is listed as 56% in series [1] (Hep3B cells); 11% in series [2] (setting [3]); 4% in series [2] (2220 nM, Study 2); 29% in series [2] (6670.0 nM, Study 2); 60% in series [2] (20000.0 nM, Study 2). Further, in series [2], it took 6 µM to reach half-maximal inhibition (IC50).

Regarding “799808 (antisense kG*k[5mC]*kT*dG*dA*dA*dA*dG*dA*dA*dA*dG*dT*k[5mC]*k[5mC]*k[5mC]) [compound 799808]”, in series [1] (setting [4]), the “% Inhibition” value was determined as 70%. Further, the “% inhibition of SMAD7 mRNA expression” value in series [2] (setting [3]) stood at 8%; in series [2] (2220 nM, Study 2) it was 33%; in series [2] (6670.0 nM, Study 2), 52%; in series [2] (20000.0 nM, Study 2), 73%. In series [2], this substance returned a half-inhibitory concentration (IC50) of 10 µM.

As to “799851 (kA*kA*kG*dT*dG*dT*d[5mC]*d[5mC]*dA*dT*d[5mC]*dA*dA*kG*k[5mC]*kA; antisense) [compound 799851]”, in series [1] (setting [5]), the “% Inhibition” value is 70%. Also, the “% inhibition of SMAD7 mRNA expression” value in series [2] (setting [3]) is listed as 15%; in series [2] (2220 nM, Study 2), 36%; in series [2] (6670.0 nM, Study 2) it was 46%; in series [2] (20000.0 nM, Study 2) it was 57%. Half-maximal inhibition in series [2] (IC50) required 2 µM.

Take “799854 (kG*k[5mC]*k[5mC]*dA*dA*dG*dT*dG*dT*d[5mC]*d[5mC]*dA*dT*k[5mC]*kA*kA; antisense) [compound 799854]”: the “% Inhibition” value in series [1] (setting [5]) was 45%. The “% inhibition of SMAD7 mRNA expression” value in series [2] (setting [3]) came to 21%; in series [2] (2220 nM, Study 2), 56%; in series [2] (6670.0 nM, Study 2) it was 80%; in series [2] (20000.0 nM, Study 2), 79%. The substance also registered a half-inhibitory concentration (IC50) in series [2] of 5 µM.

For “799858 (kG*kT*kA*dA*dT*dT*dT*dA*dG*d[5mC]*dA*dA*dT*kT*k[5mC]*k[5mC]; antisense) [compound 799858]”, in series [1] (setting [5]), the “% Inhibition” value was 64%. The “% inhibition of SMAD7 mRNA expression” value came out at 18% in series [2] (setting [3]); 43% in series [2] (2220 nM, Study 2); 48% in series [2] (6670.0 nM, Study 2); 71% in series [2] (20000.0 nM, Study 2). In series [2], this substance displayed a concentration for half-maximal inhibition (IC50) of 2 µM.

For “799878 (kG*k[5mC]*k[5mC]*d[5mC]*d[5mC]*d[5mC]*d[5mC]*dT*d[5mC]*d[5mC]*d[5mC]*d[5mC]*dG*kT*kG*k[5mC]; antisense) [compound 799878]”, the “% Inhibition” value in series [1] (setting [5]) came out at 70%. Besides, the “% inhibition of SMAD7 mRNA expression” value is recorded as 35% in series [2] (setting [3]); 64% in series [2] (2220 nM, Study 2); 68% in series [2] (6670.0 nM, Study 2); 84% in series [2] (20000.0 nM, Study 2). In series [2], this substance returned an IC50 of 17 µM.

With “799904 (antisense kA*k[5mC]*kT*d[5mC]*dA*dG*dA*dG*d[5mC]*dA*dG*d[5mC]*dT*k[5mC]*kT*k[5mC]) [compound 799904]”, in series [1] (setting [6]), the “% Inhibition” value is 61%. The “% inhibition of SMAD7 mRNA expression” value in series [2] (setting [3]) turned out to be 3%; in series [2] (2220 nM, Study 2) it was 9%; in series [2] (6670.0 nM, Study 2) it was 23%; in series [2] (20000.0 nM, Study 2) it was 62%. Also, the IC50 in series [2] worked out at 8 µM.

As to “799921 (antisense k[5mC]*kT*kA*dA*dT*dT*dA*dG*dT*dG*dA*d[5mC]*dT*kG*kT*kG) [compound 799921]”, the “% Inhibition” value in series [1] (setting [6]) is on record as 75%. Further, the “% inhibition of SMAD7 mRNA expression” value turned out to be 10% in series [2] (setting [3]); 35% in series [2] (2220 nM, Study 2); 55% in series [2] (6670.0 nM, Study 2); 58% in series [2] (20000.0 nM, Study 2). The substance further displayed a half-maximal inhibitory concentration (IC50) in series [2] of 11 µM.

For “799964 (antisense k[5mC]*k[5mC]*k[5mC]*d[5mC]*dT*dT*dA*dG*d[5mC]*dG*d[5mC]*dA*dT*kT*k[5mC]*kT) [compound 799964]”, in series [1] (setting [6]), the “% Inhibition” value was 55%. For the same substance, the “% inhibition of SMAD7 mRNA expression” value stood at 4% in series [2] (setting [3]); 15% in series [2] (2220 nM, Study 2); 46% in series [2] (6670.0 nM, Study 2); 61% in series [2] (20000.0 nM, Study 2). Besides, the IC50 in series [2] was > 20 µM.

Regarding “799967 (kG*kA*k[5mC]*dG*dA*dT*dG*dA*dA*dT*d[5mC]*d[5mC]*dT*kG*kG*k[5mC]; antisense) [compound 799967]”, the “% Inhibition” value in series [1] (setting [6]) stood at 72%. Moreover, the “% inhibition of SMAD7 mRNA expression” value amounted to 0% in series [2] (setting [3]); 0% in series [2] (2220 nM, Study 2); 0% in series [2] (6670.0 nM, Study 2); 20% in series [2] (20000.0 nM, Study 2). In series [2], the IC50 was determined as 9 µM.

“799980 (k[5mC]*k[5mC]*kA*dA*d[5mC]*dG*dG*dT*dT*dG*d[5mC]*d[5mC]*dT*k[5mC]*kA*kT; antisense) [compound 799980]”: in series [1] (setting [6]), the “% Inhibition” value worked out at 78%. Further, the “% inhibition of SMAD7 mRNA expression” value in series [2] (setting [3]) amounted to 22%; in series [2] (2220 nM, Study 2), 22%; in series [2] (6670.0 nM, Study 2) it was 51%; in series [2] (20000.0 nM, Study 2), 61%. The substance further yielded a concentration for half-maximal inhibition (IC50) in series [2] of 13 µM.

The record behind these values is patent US10517889B2, “Modulators of SMAD7 expression” (Ionis Pharmaceuticals, Inc., priority 2017, dated 2019).
